Consider 104 molecules from ChEMBL document CHEMBL3301361, “Experimental in vitro DMPK and physicochemical data on a set of publicly disclosed compounds”.

The data set is described as follows: physchem. The following applies: octan-1-ol/water, pH 7.4, LogD7.4.

The logD is lipophilicity at a set pH, counting ionised and neutral species.

`CC(C)C(NC(=O)Cn1c(-c2cccs2)ncc(N)c1=O)C(=O)C(F)(F)F` (centres undefined) gave a logD of 0.68.

Take `CC(C)C(NC(=O)Cn1c(-c2ccccc2)ccc(NC(=O)Cc2ccc(C(=O)O)cc2)c1=O)C(=O)C(F)(F)F` (centres undefined): the logD was 0.35.

`COC(=O)c1c(O)cccc1OC/C=C/c1ccc(F)c(-c2cc(C(=O)O)no2)c1` registered a pH-dependent lipophilicity (logD) of 0.66.

`O=c1[nH]n(C(c2ccccn2)C2CC2)c(=O)c2c(O)c3ccc(Cl)cc3nc12` (centres undefined): the logD worked out at 1.

The molecule `N=C(N)Nc1ccc(C(=O)Oc2ccc(Cl)cc2)cc1` came in with a logD of 0.7.

Molecule `CC(=O)Nc1ccccn1` registered a logD of 0.5.

In the case of `NC(=O)c1cccc(OC2CCN(CC3CC3)CC2)c1`, the logD was 0.49.

For `CNS(=O)(=O)CCc1ccc2[nH]cc(C3CCN(C)CC3)c2c1`, the logD came out at 0.48.

`Cc1nc(C(=O)N2CCCC3(CCN(Cc4ccc(Cl)cc4)CC3)C2)cs1` displayed a logD of 0.64.

Molecule `Cc1nc(C(=O)N2CCCC3(CCN(Cc4ccccc4)CC3)C2)cs1` showed a logD of 0.24.

`Nc1ccc(S(=O)(=O)N2CCCC2)cc1` yielded a logD of 0.98.

The molecule `O=c1[nH][nH]c(=O)c2c(O)c3c(Cl)cc(Cl)cc3nc12` had a logD of 0.89.

For `Nc1n[nH]c2ccccc12`, the logD was found to be 1.

For `C=CCc1cc(NC(C)=O)ccc1OCCCNC(C)C`, the logD was -0.01.

With `Cn1sc(NC(=O)c2cccc(Cl)c2)nc1=O`, the logD was 0.87.

Regarding `c1ccc2nc(C3=NCCN3)ccc2c1`, the logD was 0.6.

Take `O=Cc1ccccc1B(O)O`: the logD came out at 0.83.

Take `O=c1c2ccccc2nc2n1CCO2`: the logD amounted to 0.6.

The molecule `O=S(=O)(Nc1cccnc1)c1ccccc1` returned a logD of 0.84.

The molecule `CCCCN1Cc2c(nc3cc(-c4ccco4)nn3c2O)C1=O` had a logD of 0.8.

Molecule `CN1CCN(CC(=O)Nc2c(C#N)cnn2-c2ccccc2)CC1` displayed a logD of 0.

As for `FC(F)(F)c1nnc2ccc(-n3ccnc3)nn12`, the logD was determined as 0.91.

`CC(=O)Nc1ccc(S(=O)(=O)Nc2ccccn2)cc1` displayed a logD of 0.24.

`Cc1nc2c(C#N)cnn2c(O)c1Cc1ccccc1` returned a logD of 0.68.

Regarding `CCN(CC)CC(=O)Nc1c(C#N)cnn1-c1ccccc1`, the pH-dependent lipophilicity (logD) was 0.4.

With `O=C(O)c1ccc(-c2nnn(Cc3ccccc3F)n2)cc1`, the logD came out at 0.3.

In the case of `CC(=O)Nc1ccccc1C`, the logD was 1.

Consider `Cc1nnsc1C(=O)Nc1ccccc1`, for which the logD is 0.97.

`C#Cc1cccc(Nc2nc3cc(C(=O)O)ccc3c3cncnc23)c1` came in with a logD of 0.92.

Molecule `Nc1ccnc(-c2cccnc2)n1` registered a log distribution coefficient (logD) of 0.44.

`CC1CN(Cc2cc(Cl)ccc2OCC(=O)O)CCN1S(=O)(=O)c1ccccc1` (centres undefined) displayed a logD of 0.31.

Take `COc1ccc(-c2cc(C(F)(F)F)ccc2OCC(=O)O)cc1`: the logD stood at 0.29.

`Cc1noc(C)c1CCC1CCN(S(=O)(=O)CC2(N(O)C=O)CCOCC2)CC1` showed a logD of 0.9.

`O=c1[nH]c2c(O)ccc([C@@H](O)CNCCOCCCNCCc3cccc(Cl)c3)c2s1` returned a logD of 0.83.

In turn, `CCC(c1nc2ccsc2c(=O)n1Cc1cccnc1)N(CCCN)C(=O)c1ccc(C)cc1` (centres undefined) had a logD of 0.01.

As for `CCC(c1nc2ccsc2c(=O)n1Cc1cscn1)N(CCCN)C(=O)c1ccc(C)cc1` (centres undefined), the logD stood at 0.02.

`O=C(O)CCn1c2ccccc2c2ccccc21` came in with a log distribution coefficient (logD) of 0.6.

Regarding `COc1ccc2c(C)nc(=O)n(CCN3CCC(NCc4cc5c(cn4)OCCO5)CC3)c2c1`, the logD came out at 0.29.

In turn, `CCS(=O)(=O)c1ccc(Oc2c(C)n(CC(=O)O)c3ccc(C(F)(F)F)cc23)cc1` had a logD of 0.29.

In turn, `Cc1ccc2c(n1)c(Sc1ccc(Cl)cc1)c(C)n2CC(=O)O` showed a logD of 0.35.

The molecule `Cc1c(Sc2ccc(Cl)cc2)c2c(Cl)nccc2n1CC(=O)O` showed a log distribution coefficient (logD) of 0.92.

In turn, `c1ccc(CNCCNCc2ccccc2)cc1` yielded a logD of 0.73.

As to `CC(C)Oc1cc(OCCc2cccnc2)cc(C(=O)Nc2ccc(C(=O)O)cn2)c1`, the logD worked out at 0.81.

The molecule `O=c1[nH]c2c(O)ccc([C@@H](O)CNCCc3cccc(CNCc4ccccc4F)c3)c2s1` registered a logD of 0.69.

The molecule `CN[C@@H](C)C(=O)N[C@H](C(=O)N[C@H]1CCCN(CCc2ccc(O)cc2)C1)C(C)(C)C` came in with a logD of 0.77.

In turn, `O=c1cc(N2CCOCC2)oc2cc(O)ccc12` gave a logD of 1.

The molecule `COc1ccc(-c2nc3c(NCCCNC(=O)c4ccccc4)c(Br)cnc3[nH]2)cc1` yielded a logD of 0.25.

Regarding `CNc1cccc(CCOc2ccc(C[C@H](NC(=O)c3c(C)cc(C)cc3C)C(=O)O)cc2)n1`, the logD was 0.52.

Molecule `O=C(N[C@@H](Cc1cccc(OCCCNc2ccccn2)c1)C(=O)O)c1c(Cl)cccc1Cl` displayed a logD of 0.16.

As for `O=C(N[C@@H](Cc1ccc(CCCCNc2ccccn2)cc1)C(=O)O)c1c(Cl)cccc1Cl`, the logD amounted to 0.51.

`CCCSc1nc2ccc(NC(=O)CCC(=O)O)cc2s1`: the log distribution coefficient (logD) came to 0.5.

Regarding `Cc1nc2ccc(NC(=O)CCNC(N)=O)cc2s1`, the logD came out at 0.9.

In turn, `N#Cc1ccc(-c2cc(NC(N)=O)c(C(=O)N[C@H]3CCCNC3)s2)cc1` returned a logD of 0.61.

On to `NC(=O)Nc1cc(-c2ccccc2)sc1C(=O)N[C@H]1CCCNC1`, for which the logD was 1.04.

`N#Cc1cccc(-c2cccc(-c3nn[nH]n3)c2)c1` yielded a logD of 0.7.

Take `CC1CC(=O)Nc2ccccc2N1` (centres undefined): the log distribution coefficient (logD) was determined as 0.56.

In turn, `NC(=O)C1CCN(CC(=O)Nc2ccc3c(c2)OCO3)CC1` returned a logD of 0.4.

On to `O=C(O)CCCS(=O)(=O)c1cccc(C(=O)N2CCC(N3CCC(Oc4ccc(Cl)c(Cl)c4)CC3)CC2)c1`, for which the logD was determined as 0.66.

The molecule `CCCSc1c(C(=O)NC2CCCCC2)cnn1-c1ccc(C(=O)O)cc1` came in with a logD of 0.64.

`CCCSc1c(C(=O)N(C)C2CCCCC2)cnn1-c1ccc(C(=O)O)cc1` returned a logD of 0.59.

Regarding `Nc1nc(-c2ccc(O)cc2)cc(=O)[nH]1`, the logD was 1.05.

Consider `O=S(=O)(Nc1cccnc1)c1cccs1`, for which the logD worked out at 0.54.

With `COc1cc(/C=C2/SC(=O)NC2=O)cc(OC)c1O`, the logD worked out at 0.74.

As for `OCC[C@]1(c2ccc(Cl)c(Cl)c2)CCCNC1`, the log distribution coefficient (logD) was 0.61.

Take `OCC[C@@]1(c2ccc(Cl)c(Cl)c2)CCCNC1`: the logD was 0.62.

Turning to `OCC[C@]1(c2cc3ccccc3o2)CCCNC1`, the logD stood at 0.12.

Take `OCC[C@@]1(c2cc3ccccc3o2)CCCNC1`: the logD was found to be 0.06.

Consider `CC(NC(=O)C1(N)CCN(c2ncnc3[nH]ccc23)CC1)c1ccc(S(C)(=O)=O)cc1` (centres undefined), for which the logD is 1.

`O=C(COc1ccccc1)N1CCOCC1` showed a logD of 0.75.

As for `CC1(c2ccccc2)CC(=O)NC(N)=N1` (centres undefined), the logD was determined as 0.62.

Take `O=C(O)COc1ccc(Cl)cc1C1CCCCC1`: the logD was 0.93.

Molecule `CCNCc1cnc(-c2ccc(C(=O)Nc3ccccc3N)cc2)s1` returned a logD of 0.95.

The molecule `CCOC(=O)c1cc(O)c(-c2ccccc2)nn1` yielded a pH-dependent lipophilicity (logD) of 0.69.

Regarding `NCC(O)(c1ccccc1)c1ccccc1`, the logD was determined as 0.9.

In turn, `O=S(=O)(Nc1nccs1)c1ccc(O)cc1` yielded a logD of 0.36.

The molecule `CC(C)C(NC(=O)Cn1c(-c2ccccc2)ccc(NC(=O)OCc2ccc(C(=O)O)cc2)c1=O)C(=O)C(F)(F)F` (centres undefined) returned a logD of 0.84.

As for `NCc1nc2ccccc2[nH]1`, the log distribution coefficient (logD) stood at 0.4.

In turn, `Cc1cc(N)c2cc(NC(=O)CCCCC(=O)Nc3ccc4nc(C)cc(N)c4c3)ccc2n1` registered a logD of 0.53.

`O=S(=O)(NCCNc1ncccn1)c1cccc2cnccc12` registered a log distribution coefficient (logD) of 0.61.

Molecule `O=c1ccc(=O)c2ccccc2[nH]1` displayed a pH-dependent lipophilicity (logD) of 1.02.

Molecule `CN(CCCc1ccccc1)S(=O)(=O)c1cc(C(=O)N2CCc3ccc(S(=O)(=O)NCCc4ccccc4)cc3C2)c(O)c(O)c1O` showed a logD of 0.75.

As to `N=C(N)NCCC[C@H](NC(=O)COCC(c1ccccc1)c1ccccc1)C(=O)O`, the logD is 0.18.

As for `O=C(N[C@@H](Cc1ccc(N2CCN(c3ccccc3)CC2)cc1)C(=O)O)c1c(Cl)cccc1Cl`, the pH-dependent lipophilicity (logD) was 0.08.

Molecule `COc1cc(C(=O)NS(=O)(=O)c2ccccc2)ccc1Cn1cnc2ccc(NC(=O)CC3CCCC3)cc21` returned a logD of 0.9.

`CC(C)C(NC(=O)Cn1c(-c2ccccc2)ccc(NC(=O)Cc2cccc(C(=O)O)c2)c1=O)C(=O)C(F)(F)F` (centres undefined) registered a log distribution coefficient (logD) of 0.68.

On to `CC(=O)NC[C@H]1CN(c2ccc(-n3ccnc3)c(F)c2)C(=O)O1`, for which the logD was 0.7.

With `CC(C)C(NC(=O)Cn1c(-c2ccc(F)cc2)ncc(N)c1=O)C(=O)C(F)(F)F` (centres undefined), the logD amounted to 1.05.

Molecule `c1ccc(C2OC3(CCNCC3)c3ccccc32)cc1` (centres undefined) showed a pH-dependent lipophilicity (logD) of 0.75.

Take `c1cnc2cccnc2c1`: the logD stood at 0.89.

In turn, `COC(=O)COc1ccc(O)cc1` yielded a logD of 0.92.

Regarding `CNC(=O)c1ccc(-c2cc(C(=O)N[C@H]3CCCNC3)c(NC(N)=O)s2)cc1`, the logD is 0.7.

On to `O=C(c1cc(Cc2n[nH]c(=O)c3ccccc23)ccc1F)N1CCN(C(=O)C2CCCO2)CC1` (centres undefined), for which the logD was 0.9.

`O=C(COc1ccc(OCCNCC(O)COc2ccccc2)cc1)NCCO` (centres undefined) yielded a logD of 0.42.

In turn, `COc1ccccc1-c1nnc(N)[nH]1` displayed a logD of 0.91.

`c1ccc(OCC2CNCCO2)cc1` (centres undefined) displayed a logD of 0.2.

Consider `CS(=O)(=O)c1ccc(-c2cc(C(=O)N[C@H]3CCCNC3)c(NC(N)=O)s2)cc1`, for which the logD worked out at 0.68.

The molecule `Cc1cc2nc(NC(=N)N)nc(C)c2cc1C` returned a logD of 0.7.

Take `N=C(N)Nc1ccc(C(=O)Oc2ccc([N+](=O)[O-])cc2)cc1`: the pH-dependent lipophilicity (logD) is 0.5.

`COc1ccc2nc3ccccc3c(N)c2c1` yielded a logD of 1.

Molecule `NNc1nc2ccccc2[nH]c1=O` returned a logD of 0.44.

For the molecule `Cc1cc(C)c(C(=O)N[C@@H](Cc2ccc(OCCCNc3ccccn3)cc2)C(=O)O)c(C)c1`, the logD was found to be 0.49.

In turn, `CN(C)c1cccc2c(S(=O)(=O)Nc3cnccn3)cccc12` showed a logD of 0.9.

The molecule `COC1/C=C/OC2(C)Oc3c(C)c(O)c4c(c3C2=O)C(=O)C=C(NC(=O)/C(C)=C\C=C\C(C)C(O)C(C)C(O)C(C)C(OC(C)=O)C1C)C4=O` (centres undefined) came in with a log distribution coefficient (logD) of 0.7.

With `O=c1ccnc2ccccn12`, the logD was found to be 0.2.
